Laboratory results taken from ChEMBL document CHEMBL3352167 (Bioorg Med Chem, 2015).
pKi: −log10 of the molar value.

Legend:
[1] = molecular target: Sigma non-opioid intracellular receptor 1 (Cavia porcellus, UniProt Q60492); experiment: Displacement of [3H]-(+)-pentazocine from sigma1 receptor in guinea pig brain membrane after 150 mins by scintillation counting analysis; format: cell membranes
[2] = Displacement of [3H]DTG from sigma2 receptor in guinea pig brain membrane after 120 mins by scintillation counting analysis; format: cell membranes, Cavia porcellus
Cavia porcellus = species: Cavia porcellus; experiment: Selectivity ratio of Ki for guinea pig brain sigma2 receptor to Ki for guinea pig brain sigma1 receptor
[3] = molecular target: Sodium-dependent dopamine transporter (Mus musculus) (UniProt Q61327); experiment: […] from mouse DAT in striatal membranes at 10000 nM; format: cell membranes; details: Striatum, Membrane
Chain of Sodium-dependent dopamine transporter (Mus musculus) (Q61327 whole entry): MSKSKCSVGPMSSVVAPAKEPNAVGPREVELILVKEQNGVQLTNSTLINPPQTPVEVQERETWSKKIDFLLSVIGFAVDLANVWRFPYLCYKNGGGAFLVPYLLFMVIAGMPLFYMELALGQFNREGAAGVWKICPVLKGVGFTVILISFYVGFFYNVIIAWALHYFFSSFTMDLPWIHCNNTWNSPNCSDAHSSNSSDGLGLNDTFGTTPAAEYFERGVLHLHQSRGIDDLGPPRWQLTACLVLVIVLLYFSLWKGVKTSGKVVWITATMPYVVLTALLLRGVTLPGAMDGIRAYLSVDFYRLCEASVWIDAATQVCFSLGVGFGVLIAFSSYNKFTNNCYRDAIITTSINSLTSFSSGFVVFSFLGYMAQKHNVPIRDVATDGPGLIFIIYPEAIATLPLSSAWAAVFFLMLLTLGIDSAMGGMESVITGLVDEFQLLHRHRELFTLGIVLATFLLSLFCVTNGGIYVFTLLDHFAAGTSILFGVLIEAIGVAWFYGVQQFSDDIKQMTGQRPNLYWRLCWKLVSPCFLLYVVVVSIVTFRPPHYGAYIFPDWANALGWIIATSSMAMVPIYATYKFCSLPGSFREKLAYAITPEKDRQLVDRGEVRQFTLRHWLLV

[4] = Selectivity ratio of Ki for mouse DAT to Ki for guinea pig brain sigma1 receptor
[5] = molecular target: Sodium-dependent dopamine transporter (Mus musculus, UniProt Q61327); experiment: Displacement of [3H]RTI-121 from mouse DAT in striatal membranes; format: cell membranes, Striatum, Membrane
Chain of Sodium-dependent dopamine transporter (Q61327 whole entry): as above

[6] = molecular target: Sodium-dependent serotonin transporter (Mus musculus, UniProt Q60857); experiment: Displacement of [3H]paroxetine from mouse SERT in whole brain membrane; format: cell membranes
Chain of Sodium-dependent serotonin transporter (Q60857 whole entry): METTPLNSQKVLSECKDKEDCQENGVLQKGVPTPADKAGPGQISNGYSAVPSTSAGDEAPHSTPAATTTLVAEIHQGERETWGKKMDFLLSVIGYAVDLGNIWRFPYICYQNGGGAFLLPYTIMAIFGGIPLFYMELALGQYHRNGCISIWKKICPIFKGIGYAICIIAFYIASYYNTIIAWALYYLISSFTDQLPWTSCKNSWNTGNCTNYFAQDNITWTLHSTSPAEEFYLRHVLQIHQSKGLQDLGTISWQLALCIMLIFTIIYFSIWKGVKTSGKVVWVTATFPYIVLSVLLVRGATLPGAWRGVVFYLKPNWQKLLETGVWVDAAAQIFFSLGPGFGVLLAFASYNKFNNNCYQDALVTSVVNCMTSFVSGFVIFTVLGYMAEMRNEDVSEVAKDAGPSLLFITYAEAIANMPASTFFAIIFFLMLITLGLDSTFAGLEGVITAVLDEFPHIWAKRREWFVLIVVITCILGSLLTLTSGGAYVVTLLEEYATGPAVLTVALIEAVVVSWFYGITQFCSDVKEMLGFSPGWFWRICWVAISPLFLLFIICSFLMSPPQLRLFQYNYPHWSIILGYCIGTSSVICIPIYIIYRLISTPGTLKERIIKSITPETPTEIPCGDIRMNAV

[7] = Selectivity ratio of Ki for mouse SERT to Ki for guinea pig brain sigma1 receptor

Chain of Sigma non-opioid intracellular receptor 1 (Q60492 whole entry): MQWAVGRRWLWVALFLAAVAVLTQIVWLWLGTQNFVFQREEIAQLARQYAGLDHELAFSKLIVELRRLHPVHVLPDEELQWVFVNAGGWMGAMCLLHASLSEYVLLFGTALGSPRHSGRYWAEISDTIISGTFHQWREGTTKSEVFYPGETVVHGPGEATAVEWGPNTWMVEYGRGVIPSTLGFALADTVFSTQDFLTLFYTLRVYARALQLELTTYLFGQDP

Compound | pKi [1] | pKi [2] | Ratio Ki (Cavia porcellus) | Inhibition % [3] [%] | Ratio Ki [4] | pKi [5] | pKi [6] | Ratio Ki [7]
COc1cc(CCN2CCN(CCCc3ccccc3)CC2)ccc1OCCCc1ccccc1 | 7.73 | 7.63 | 1.3 | 97 | 5 | 7.06 | – | –
C=CCOc1ccc(CCN2CCN(CCCc3ccccc3)CC2)cc1OC | 7.52 | 7.38 | 1.4 | 44 | 69 | 5.68 | 6.53 | 9.8
c1ccc(CCCN2CCN(CCc3ccc4c(c3)OCO4)CC2)cc1 | 8.59 | 7.83 | 5.8 | 42 | 721 | 5.74 | 6.33 | 184
c1ccc(CCCN2CCN(CCc3ccc4c(c3)OCCO4)CC2)cc1 | 7.99 | 7.45 | 3.4 | 33 | – | – | – | –
Clc1ccc(CCN2CCN(CCCc3ccccc3)CC2)cc1Cl | 8.66 | 7.41 | – | – | – | – | 5.54 | –
CCCOc1ccc(CCN2CCN(CCCc3ccccc3)CC2)cc1OC | 7.59 | 7.48 | 1.3 | 43 | 71 | 5.74 | 6.91 | 4.8
COc1ccc(CCN2CCN(CCCc3ccccc3)CC2)cc1OC [[11C]SA4503] | – | 7.20 | – | – | – | – | 6.12 | –
COc1cc(CCN2CCN(CCCc3ccccc3)CC2)ccc1OCCBr | 7.60 | 7.57 | 1.1 | 38 | – | – | – | –
COc1cc(CCN2CCN(CCCc3ccccc3)CC2)ccc1OC/C=C/I | 7.77 | 7.74 | 1.1 | 69 | 33 | 6.25 | 6.76 | 10.3
COc1cccc(CCN2CCN(CCCc3ccccc3)CC2)c1 | 8.85 | 7.99 | 7.3 | – | 1010 | 5.85 | 6.01 | 703
c1ccc(CCCN2CCN(CCc3ccc4c(c3)OCCCO4)CC2)cc1 | 7.72 | 7.28 | 2.7 | 43 | – | – | – | –
COc1cc(CCN2CCN(CCCc3ccccc3)CC2)ccc1OCCF | 8.10 | 6.95 | 14.1 | 23 | – | – | – | –
COc1ccccc1CCN1CCN(CCCc2ccccc2)CC1 | – | 8.12 | – | – | – | – | – | –
COc1cc(CCN2CCN(CCCc3ccccc3)CC2)ccc1OCc1ccccc1 | 7.68 | 7.78 | 0.8 | 93 | 6 | 6.92 | 6.89 | 6.2
COc1cc(CCN2CCN(CCCc3ccccc3)CC2)ccc1OC/C=C\I | 7.97 | 7.78 | 1.6 | 94 | 22 | 6.63 | – | –
COc1cc(CCN2CCN(CCCc3ccccc3)CC2)ccc1OCF | 8.19 | 6.60 | 39 | 19 | – | – | – | –
COc1cc(CCN2CCN(CCCc3ccccc3)CC2)ccc1OCCc1ccccc1 | 7.88 | 7.78 | 1.2 | 89 | – | – | – | –
COc1ccc(CCN2CCN(CCCc3ccccc3)CC2)cc1 | 8.89 | 7.54 | 22 | – | 1130 | 5.83 | 5.76 | 1330
COc1cc(CCN2CCN(CCCc3ccccc3)CC2)ccc1O | 8.76 | 8.17 | 3.8 | – | – | – | – | –
